Experimental data from US20250230193A1, “CYCLIC COMPOUND HAVING SELECTIVE KRAS INHIBITORY EFFECT ON HRAS AND NRAS” (CHUGAI SEIYAKU KABUSHIKI KAISHA, priority 2022, published 2025).
Where a SMILES comes first, the peptide text is derived from it. Bridges are numbered along the chain shown (N, C = ends). [ ]: non-standard residue; d: D form. The star is where a group is joined. hPhe(3,5-F2-4-CF3) = N[C@@H](CCc1cc(F)c(C(F)(F)F)c(F)c1)C(=O)O; hPhe(3-Cl-4-CF3) = N[C@@H](CCc1ccc(C(F)(F)F)c(Cl)c1)C(=O)O; NPrPhe(4-CF3) = CCCN[C@@H](Cc1ccc(C(F)(F)F)cc1)C(=O)O; NMeGly(cPent) = CN[C@H](C(=O)O)C1CCCC1; NMeD = CN[C@@H](CC(=O)O)C(=O)O; Ac4c(3-oxa) = NC1(C(=O)O)COC1; NMeL = CN[C@@H](CC(C)C)C(=O)O; Morpholide = C1CN(*)CCO1; Ac5c = NC1(C(=O)O)CCCC1; Sar = CNCC(=O)O

Experiments:
[1] = target: GDP-bound NRAS wild-type protein (Homo sapiens, UniProt P01111); test: Binding to NRAS by surface plasmon resonance (SPR), Single Cycle Kinetics
GDP-bound NRAS wild-type protein, sequence (P01111 whole entry): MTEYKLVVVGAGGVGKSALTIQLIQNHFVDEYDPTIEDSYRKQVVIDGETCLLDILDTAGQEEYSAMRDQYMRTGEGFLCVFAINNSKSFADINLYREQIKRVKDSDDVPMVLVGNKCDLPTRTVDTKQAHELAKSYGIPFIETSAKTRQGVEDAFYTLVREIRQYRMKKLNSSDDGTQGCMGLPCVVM

[2] = target: GDP-bound HRAS wild-type protein (Homo sapiens, UniProt P01112); test: Binding to HRAS by surface plasmon resonance (SPR), Single Cycle Kinetics
GDP-bound HRAS wild-type protein, sequence (P01112 whole entry): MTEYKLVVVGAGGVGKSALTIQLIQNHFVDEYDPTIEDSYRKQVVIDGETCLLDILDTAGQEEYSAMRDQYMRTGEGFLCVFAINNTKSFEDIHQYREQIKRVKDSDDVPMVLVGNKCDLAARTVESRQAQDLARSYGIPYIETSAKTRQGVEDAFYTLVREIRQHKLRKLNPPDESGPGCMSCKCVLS

[3] = KD ratio NRAS/KRAS, class symbols
[4] = KD ratio HRAS/KRAS, class symbols

| Structure (SMILES) | NRAS/KRAS (ratio of KD value with respect to GDP-bound NRAS wild-type protein to KD value with respect to KRAS) [1, 3] | HRAS/KRAS (ratio of KD value with respect to GDP-bound HRAS wild-type protein to KD value with respect to KRAS) [2, 4] | further results |
| --- | --- | --- | --- |
| CCO[C@@H]1C[C@H]2C(=O)NC3(CCC3)C(=O)N(C)[C@@H](C3CCCC3)C(=O)N(C)[C@H](C(=O)N(C)C)CC(=O)N(C)[C@@H](CC(C)C)C(=O)N[C@@H]([C@@H](C)CC)C(=O)N3CC[C@H]3C(=O)N(C)[C@H]3C[C@@H](C)CCN(C3=O)[C@@H](Cc3ccc(C(F)(F)F)cc3)C(=O)N(C)CC(=O)N[C@@H](CCc3cc(F)c(C(F)(F)F)c(F)c3)C(=O)N2C1 [PP1019] |  |  | NRAS/KRAS (ratio of KD value with respect to NRAS to KD value with respect to KRAS) ([1]; KD ratio, GDP-bound NRAS wild-type vs GDP-bound KRAS wild-type, SPR): C (A compound having a KD ratio of 0.1 or more and less than 3 is denoted as C); HRAS/KRAS (ratio of KD value with respect to HRAS to KD value with respect to KRAS) ([2]; KD ratio, GDP-bound HRAS wild-type vs GDP-bound KRAS wild-type, SPR): B (a compound having 3 or more and less than 10 is denoted as B) |
| CCC[C@H]1C(=O)N[C@@H]([C@@H](C)CC)C(=O)N(C2CC2)CC(=O)N(C)[C@H]2C/C=C\CCN(C2=O)[C@@H](Cc2ccc(C)cc2)C(=O)N(C)CC(=O)N[C@@H](CCc2ccc(Cl)c(Cl)c2)C(=O)N2C[C@H](OCC)C[C@H]2C(=O)NC2(CC(C)(C)C2)C(=O)N(C)[C@@H](CC2CC2)C(=O)N(C)[C@H](C(=O)N(C)C)CC(=O)N1C [PP2805] | A (a compound having 10 or more and less than 20 is denoted as A) | A (a compound having 10 or more and less than 20 is denoted as A) |  |
| CCC[C@H]1C(=O)N[C@@H]([C@@H](C)CC)C(=O)N(C)CC(=O)N(C)[C@H]2C/C=C\CCN(C2=O)[C@@H](Cc2ccc(C(F)(F)F)cc2)C(=O)N(C)CC(=O)N[C@@H](CCc2ccc(Cl)c(C(F)(F)F)c2)C(=O)N2C[C@H](OCC)C[C@H]2C(=O)NC2(CC(C)(C)C2)C(=O)N(C)[C@@H](C2CCCC2)C(=O)N(C)[C@H](C(=O)N(C)C)CC(=O)N1C [PP2784] | A (a compound having 10 or more and less than 20 is denoted as A) | A (a compound having 10 or more and less than 20 is denoted as A) |  |
| CCCC[C@H]1C(=O)N[C@@H]([C@@H](C)CC)C(=O)N(C)CC(=O)N(C)[C@H]2C/C=C\CCN(C2=O)[C@@H](Cc2ccc(C)cc2)C(=O)N(C)CC(=O)N[C@@H](CCc2cc(F)c(C(F)(F)F)c(F)c2)C(=O)N2C[C@H](OCC)C[C@H]2C(=O)NC2(CCC2)C(=O)N(C)[C@@H](C2CCCC2)C(=O)N(C)[C@H](C(=O)N(C)CC)CC(=O)N1C [PP2796] | A (a compound having 10 or more and less than 20 is denoted as A) | A (a compound having 10 or more and less than 20 is denoted as A) |  |
| CCC[C@H]1C(=O)N[C@@H]([C@@H](C)CC)C(=O)N(C2CC2)CC(=O)N(C)[C@H]2C/C=C\CCN(C2=O)[C@@H](Cc2ccc(C)cc2)C(=O)N(C)CC(=O)N[C@@H](CCc2cc(F)c(C(F)(F)F)c(F)c2)C(=O)N2C[C@H](OC(C)C)C[C@H]2C(=O)NC2(CC(C)(C)C2)C(=O)N(C)[C@@H](C2CCCC2)C(=O)N(C)[C@H](C(=O)N(C)C)CC(=O)N1C [PP2570] | A (a compound having 10 or more and less than 20 is denoted as A) | A (a compound having 10 or more and less than 20 is denoted as A) |  |
| CCCN1C(=O)CN(C)C(=O)CN(C)C(=O)[C@H]([C@@H](C)CC)NC(=O)[C@H](CC(C)C)N(C)C(=O)C[C@@H](C(=O)N(C)C)N(C)C(=O)[C@H](C2CCCC2)N(C)C(=O)C2(COC2)NC(=O)[C@@H]2CCCN2C(=O)[C@H](CCc2cc(F)c(C(F)(F)F)c(F)c2)NC(=O)CN(C)C(=O)[C@@H]1Cc1ccc(C(F)(F)F)cc1 [PP0744] ([NMeL]I[Sar][Sar][NPrPhe(4-CF3)][Sar][hPhe(3,5-F2-4-CF3)]P[Ac4c(3-oxa)][NMeGly(cPent)][NMeD]-NMe2; lactam N-11) |  |  | NRAS/KRAS (ratio of KD value with respect to GDP-bound NRAS wild-type protein to KD value with respect to KRAS) ([1]; KD ratio NRAS/KRAS, SPR): B (a compound having 3 or more and less than 10 is denoted as B); HRAS/KRAS (ratio of KD value with respect to GDP-bound HRAS wild-type protein to KD value with respect to KRAS) ([2]; KD ratio HRAS/KRAS, SPR): B (a compound having 3 or more and less than 10 is denoted as B) |
| CCCN1C(=O)CN(C)C(=O)CN(C)C(=O)[C@H]([C@@H](C)CC)NC(=O)[C@H](CC(C)C)N(C)C(=O)C[C@@H](C(=O)N2CCOCC2)N(C)C(=O)[C@H](C2CCCC2)N(C)C(=O)C2(CCCC2)NC(=O)CN(C)C(=O)[C@H](CCc2ccc(C(F)(F)F)c(Cl)c2)NC(=O)CN(C)C(=O)[C@@H]1Cc1ccc(C(F)(F)F)cc1 [PP0266] ([NMeL]I[Sar][Sar][NPrPhe(4-CF3)][Sar][hPhe(3-Cl-4-CF3)][Sar][Ac5c][NMeGly(cPent)][NMeD]-Morpholide; lactam N-11) |  |  | NRAS/KRAS (ratio of KD for GDP-bound NRAS wild-type to KD for KRAS) ([1]; KD ratio NRAS/KRAS, SPR): B (a compound having 3 or more and less than 10 is denoted as B); HRAS/KRAS (ratio of KD for GDP-bound HRAS wild-type to KD for KRAS) ([2]; KD ratio HRAS/KRAS, SPR): C (A compound having a KD ratio of 0.1 or more and less than 3 is denoted as C) |
